{
  "source": "patent US20260055081A1",
  "about": "“Metal Chelator Compounds, Coordination Complexes, and Methods of Preparation and Use Thereof” (University of Puerto Rico, priority 2022, published 2026)",
  "key": {"[1]": {"tested_on": "Leukemia cell lines", "experiment": "NCI 60 five-dose screen, leukemia panel", "format": "cell-based, human", "experimental": "National Cancer Institute Cancer Cell Line (NCI 60) Screen of DefNEtTrp. Details of the methodology for NCI 60 cell line screening are described at http://dtp.nci.nih.gov/branches/btb/ivclsp.html. The cells, grown in supplemented RPMI-1640 medium, are seeded in 96 well plates at an appropriate density and incubated for 24 h. The test compounds are dissolved in DMSO and incubated with cells at a single dose of 10.0 μM for 48 h. The assay is terminated by addition of cold trichloroacetic acid, and the cells are fixed and stained with sulforhodamine B. Bound stain is solubilized, and the absorbance is read on an automated plate reader. […] Using the seven absorbance measurements [time zero, […], control growth, (C), and test growth in the presence of drug at the five concentration levels (Tf)], the percentage growth was calculated at each of the drug concentrations levels as: [(Tf−Ti)/(C−Ti)]×100 for concentrations for which Tf≥Ti and [(Tf−Ti)/Ti]×100 for concentrations for which Tf<Ti. Three-dose response parameters (GI50, TGI, and LC50) were calculated for each of the experimental agents in five dose assay. Growth inhibition of 50% (GI50) was calculated from 100×[(Tf−Ti)/(C−Ti)]=50, which was the drug concentration resulting in a 50% reduction in the net protein increase (as measured by sulforhodamine B, SRB staining) in control cells during the drug incubation. The total growth inhibition (TGI) was calculated from Tf=Ti, which was the drug concentration resulting in total growth inhibition and signified the cytostatic effect. The 50% cellular death (LC50) was calculated from 100×[(Tf−Ti)/Ti]=−50, indicating a net loss of cells following treatment which indicated the concentration of drug resulting in a 50% reduction in the measured protein at the end of the drug treatment as compared to that at the beginning. […] Log GI50, log TGI, and log LC50 are the logarithm molar concentrations producing 50% growth inhibition (GI50), a total growth inhibition (TGI), and a 50% cellular death (LC50), respectively."}, "[2]": {"tested_on": "Colon cancer cell lines", "experiment": "NCI 60 five-dose screen, colon panel", "format": "cell-based, human", "conditions": "48 h", "experimental": "(§1) National Cancer Institute Cancer Cell Line (NCI 60) Screen of DefNEtTrp. Details of the methodology for NCI 60 cell line screening are described at http://dtp.nci.nih.gov/branches/btb/ivclsp.html. The cells, grown in supplemented RPMI-1640 medium, are seeded in 96 well plates at an appropriate density and incubated for 24 h. The test compounds are dissolved in DMSO and incubated with cells at a single dose of 10.0 μM for 48 h. The assay is terminated by addition of cold trichloroacetic acid, and the cells are fixed and stained with sulforhodamine B. Bound stain is solubilized, and the absorbance is read on an automated plate reader. […] Using the seven absorbance measurements [time zero, […], control growth, (C), and test growth in the presence of drug at the five concentration levels (Tf)], the percentage growth was calculated at each of the drug concentrations levels as: [(Tf−Ti)/(C−Ti)]×100 for concentrations for which Tf≥Ti and [(Tf−Ti)/Ti]×100 for concentrations for which Tf<Ti. Three-dose response parameters (GI50, TGI, and LC50) were calculated for each of the experimental agents in five dose assay. […] The total growth inhibition (TGI) was calculated from Tf=Ti, which was the drug concentration resulting in total growth inhibition and signified the cytostatic effect. […]"}, "[3]": {"tested_on": "Ovarian cancer cell lines", "experiment": "NCI 60 five-dose screen, ovarian panel", "format": "cell-based, human", "conditions": "48 h", "experimental": "as §1"}, "[4]": {"tested_on": "Renal cancer cell lines", "experiment": "NCI 60 five-dose screen, renal panel", "format": "cell-based, human", "conditions": "48 h", "experimental": "as §1"}, "[5]": {"tested_on": "Breast cancer cell lines", "experiment": "NCI 60 five-dose screen, breast panel", "format": "cell-based, human", "conditions": "48 h", "experimental": "as §1"}, "[6]": {"tested_on": "Jurkat cells", "experiment": "Fe(III) supplementation cell viability study", "format": "cell-based, human", "conditions": "Jurkat supplemented with 2 μM and 5 μM Fe(III) as Fe(Citrate)2 two hours before 2 μM DefNEtTrp, 72 h", "experimental": "Fe(III) supplementation cell viability study. Jurkat cells were seeded into 96-well plates, as indicated in the MTT assay described above. One group of cells was supplemented with 2 μM [Fe(citrate)2]^5− (prepared in situ) while another was supplemented with 5 μM [Fe(citrate)2]^5−. Another group of cells were treated with media alone. After 2 h incubation, half of the cells supplemented with [Fe(citrate)2]^5− were treated with 2 μM DefNEtTrp while the other half was treated with media alone. The final percentage of DMF was maintained at 0.5% (v/v). The MTT assay was performed with these samples (n=6). A student t-test was performed to evaluate the difference in the viability of cells treated with DefNEtTrp and supplemented with and without [Fe(citrate)2]^5−."}, "[7]": {"tested_on": "Jurkat cells", "experiment": "Ferroptosis mechanistic cell viability study (ferrostatin-1)", "format": "cell-based, human", "conditions": "10 μM Fer-1 pretreatment, 2 μM DefNEtTrp, 72 h", "experimental": "Ferroptosis mechanistic cell viability study. Jurkat cells were seeded into 96-well plates, as indicated in the MTT assay described above The cells were treated with 10 μM of the ferroptosis inhibitor ferrostatin-1 (Fer-1). Another group of cells were treated with media alone. After 1 h incubation, half of the cells supplemented with Fer-1 were treated with 2 μM DefNEtTrp or 25 μM [Fe(citrate)2]^5−, as positive control, while the other half was treated with media alone. The final percentage of DMF was maintained at 0.5% (v/v). The MTT assay was performed with these samples (n=6). A student t-test was performed to evaluate the difference in the viability of cells treated with DefNEtTrp or [Fe(citrate)2]^5− and supplemented with and without Fer-1."}, "[8]": {"tested_on": "Jurkat cells", "experiment": "Apoptosis mechanistic cell viability study (Q-VD-OPh)", "format": "cell-based, human", "conditions": "10 μM Q-VD-OPh pretreatment, 2 μM DefNEtTrp, 72 h", "experimental": "Apoptosis mechanistic cell viability study. Jurkat cells were seeded into 96-well plates, as indicated in the MTT assay described above. The cells were treated with 10 μM of the apoptosis inhibitor Q-VD-OPh (Q-V-O). Another group of cells were treated with media alone. After 1 h incubation, half of the cells supplemented with Q-V-O were treated with 2 μM DefNEtTrp or 2 μM cisplatin, as positive control, while the other half was treated with media alone. The final percentage of DMF was maintained at 0.5% (v/v). The MTT assay was performed with these samples (n=6). A student t-test was performed to evaluate the difference in the viability of cells treated with DefNEtTrp or cisplatin and supplemented with and without Q-V-O."}, "[9]": {"tested_on": "Jurkat cells", "experiment": "Co-treatment with Q-VD-OPh and Fer-1, cell viability", "format": "cell-based, human", "conditions": "10 μM Fer-1/Q-VD-OPh, treatment with 2 μM, 72 h", "experimental": "FIG. 23 is a bar graph showing observed changes in the % cell viability of Jurkat cells treated with 10 μM Ferrastatin-1/Q-VD-OPh (Fer-1/Q-V-O) in combination and then treated for 72 h with 2 μM DefNetTrp (DNT), or media alone. * p-value <0.01 vs the corresponding non-treated Fer-1/Q-V-O group."}, "[10]": {"experiment": "Aqueous solubility (observation)", "format": "physicochemical"}, "[11]": {"conditions": "cell lines in which TGI was observed"}, "[12]": {"conditions": "Homo sapiens, read-out: GI50 (calculated average)"}},
  "data": [
    {"molecule": "Nc1cccnc1/C=N/NC(=S)NCCNC(=O)c1ccc(-n2nc(-c3ccccc3O)nc2-c2ccccc2O)cc1", "note": "[DefNEtTrp, deferasirox nitrogen ethyl triapine]", "values": [
      {"measurement": "GI50", "setting": "[1]; Homo sapiens, Leukemia, five-dose, 48 h, read-out: GI50 (calculated average)", "value": 290, "unit": "nM"},
      {"measurement": "TGI (calculated average)", "setting": "[1]; Leukemia, five-dose, 48 h, cell lines in which TGI was observed", "value": 1.78, "unit": "µM"},
      {"measurement": "antiproliferative behavior against all leukemia cell lines in the NCI screen", "setting": "[1]; NCI screen", "value": "~100", "unit": "%"},
      {"measurement": "TGI (calculated average)", "setting": "[2]; [11]", "value": 12.22, "unit": "µM"},
      {"measurement": "GI50", "setting": "[2]; [12]", "value": 870, "unit": "nM"},
      {"measurement": "TGI (calculated average)", "setting": "[3]; [11]", "value": 9.82, "unit": "µM"},
      {"measurement": "GI50", "setting": "[3]; [12]", "value": 1120, "unit": "nM"},
      {"measurement": "TGI (calculated average)", "setting": "[4]; [11]", "value": 13.71, "unit": "µM"},
      {"measurement": "GI50", "setting": "[4]; [12]", "value": 4.97, "unit": "µM"},
      {"measurement": "TGI (calculated average)", "setting": "[5]; [11]", "value": 4.84, "unit": "µM"},
      {"measurement": "GI50", "setting": "[5]; [12]", "value": 450, "unit": "nM"},
      {"measurement": "viability relative to the non-supplemented group", "setting": "[6]", "value": "significant increase in viability"},
      {"measurement": "change in cell viability of cells pretreated with Fer-1", "setting": "[7]", "value": "two-fold increase in the cell viability"},
      {"measurement": "change in viability of cells pretreated with Q-VD-OPh", "setting": "[8]", "value": "two-fold increase in viability"},
      {"measurement": "change in viability with equimolar Q-VD-OPh and Fer-1 co-treatment", "setting": "[9]", "value": "three-fold increase in the viability"},
      {"measurement": "water solubility", "setting": "[10]", "value": "limited water solubility"}
    ]}
  ]
}
